{"source": "the supplement of paper PMC10307832", "assay_in_all_cases": "relative viability (nuclei count vs DMSO), 5 days (fraction); higher = more cells survive", "key": {"[1]": {"test_system": "NCI-H2009", "outline": "(§1)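 Cells from lung cancer lines were seeded into 1536-well plates and, one day later, dosed by pin tool. Treatments were either a single drug or a fixed dose of an anchor drug with five library-drug doses (not always all listed) in √10 steps. After 5 days, nuclei were stained in a one-step fixation (final 0.05% Triton X-100, 1% formaldehyde, 1 ug/ml Hoechst) and counted on 4× images, and relative viability is the treated-to-vehicle nuclei ratio, as the median of duplicate plates.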"}, "[2]": {"test_system": "NCI-H2405", "outline": "as §1"}, "[3]": {"test_system": "HOP-62", "outline": "as §1"}, "[4]": {"test_system": "NCI-H1437", "outline": "as §1"}, "[5]": {"test_system": "NCI-H23", "outline": "as §1"}, "[6]": {"test_system": "NCI-H647", "outline": "as §1"}, "[7]": {"test_system": "NCI-H2126", "outline": "as §1"}, "[8]": {"test_system": "EMC-BAC-2", "outline": "as §1"}, "[9]": {"test_system": "LOU-NH91", "outline": "as §1"}, "[10]": {"test_system": "NCI-H520", "outline": "as §1"}, "[11]": {"test_system": "SW 1573", "outline": "as §1"}}, "data": [{"smiles": "O=C(O)CCCCC(CCSCc1ccccc1)SCc1ccccc1", "note": "(stereo not given) [CPI-613] + Nc1nc2[nH]cc(CCc3ccc(C(=O)N[C@@H](CCC(=O)O)C(=O)O)cc3)c2c(=O)[nH]1 [Pemetrexed] (partner 0.2 µM)", "values": [{"measurement": "relative viability", "setting": "[1]; first compound 5 µM", "value": 0.985}, {"measurement": "relative viability", "setting": "[1]; first compound 15.81 µM", "value": 1}, {"measurement": "relative viability", "setting": "[1]; first compound 50 µM", "value": 0.947}, {"measurement": "relative viability", "setting": "[1]; first compound 158.11 µM", "value": 0.322}, {"measurement": "relative viability", "setting": "[1]; first compound 500 µM", "value": 0.0262}, {"measurement": "relative viability", "setting": "[2]; first compound 5 µM", "value": 1.04}, {"measurement": "relative viability", "setting": "[2]; first compound 15.81 µM", "value": 0.922}, {"measurement": "relative viability", "setting": "[2]; first compound 50 µM", "value": 0.968}, {"measurement": "relative viability", "setting": "[2]; first compound 158.11 µM", "value": 0.63}, {"measurement": "relative viability", "setting": "[2]; first compound 500 µM", "value": 0.336}, {"measurement": "relative viability", "setting": "[3]; first compound 5 µM", "value": 0.321}, {"measurement": "relative viability", "setting": "[3]; first compound 15.81 µM", "value": 0.309}, {"measurement": "relative viability", "setting": "[3]; first compound 50 µM", "value": 0.272}, {"measurement": "relative viability", "setting": "[3]; first compound 158.11 µM", "value": 0.163}, {"measurement": "relative viability", "setting": "[3]; first compound 500 µM", "value": 0.12}, {"measurement": "relative viability", "setting": "[4]; first compound 5 µM", "value": 0.328}, {"measurement": "relative viability", "setting": "[4]; first compound 15.81 µM", "value": 0.295}, {"measurement": "relative viability", "setting": "[4]; first compound 50 µM", "value": 0.301}, {"measurement": "relative viability", "setting": "[4]; first compound 158.11 µM", "value": 0.0937}, {"measurement": "relative viability", "setting": "[4]; first compound 500 µM", "value": 0.0871}, {"measurement": "relative viability", "setting": "[5]; first compound 5 µM", "value": 0.673}, {"measurement": "relative viability", "setting": "[5]; first compound 15.81 µM", "value": 0.621}, {"measurement": "relative viability", "setting": "[5]; first compound 50 µM", "value": 0.544}, {"measurement": "relative viability", "setting": "[5]; first compound 158.11 µM", "value": 0.19}, {"measurement": "relative viability", "setting": "[5]; first compound 500 µM", "value": 0.0031}, {"measurement": "relative viability", "setting": "[6]; first compound 5 µM", "value": 0.157}, {"measurement": "relative viability", "setting": "[6]; first compound 15.81 µM", "value": 0.158}, {"measurement": "relative viability", "setting": "[6]; first compound 50 µM", "value": 0.113}, {"measurement": "relative viability", "setting": "[6]; first compound 158.11 µM", "value": 0.0906}, {"measurement": "relative viability", "setting": "[6]; first compound 500 µM", "value": 0.0167}, {"measurement": "relative viability", "setting": "[7]; first compound 5 µM", "value": 0.65}, {"measurement": "relative viability", "setting": "[7]; first compound 15.81 µM", "value": 0.632}, {"measurement": "relative viability", "setting": "[7]; first compound 50 µM", "value": 0.636}, {"measurement": "relative viability", "setting": "[7]; first compound 158.11 µM", "value": 0.385}, {"measurement": "relative viability", "setting": "[7]; first compound 500 µM", "value": 0.219}, {"measurement": "relative viability", "setting": "[8]; first compound 5 µM", "value": 0.435}, {"measurement": "relative viability", "setting": "[8]; first compound 15.81 µM", "value": 0.409}, {"measurement": "relative viability", "setting": "[8]; first compound 50 µM", "value": 0.456}, {"measurement": "relative viability", "setting": "[8]; first compound 158.11 µM", "value": 0.461}, {"measurement": "relative viability", "setting": "[8]; first compound 500 µM", "value": 0.349}, {"measurement": "relative viability", "setting": "[9]; first compound 5 µM", "value": 0.389}, {"measurement": "relative viability", "setting": "[9]; first compound 15.81 µM", "value": 0.332}, {"measurement": "relative viability", "setting": "[9]; first compound 50 µM", "value": 0.367}, {"measurement": "relative viability", "setting": "[9]; first compound 158.11 µM", "value": 0.399}, {"measurement": "relative viability", "setting": "[9]; first compound 500 µM", "value": 0.233}, {"measurement": "relative viability", "setting": "[10]; first compound 5 µM", "value": 0.708}, {"measurement": "relative viability", "setting": "[10]; first compound 15.81 µM", "value": 0.627}, {"measurement": "relative viability", "setting": "[10]; first compound 50 µM", "value": 0.527}, {"measurement": "relative viability", "setting": "[10]; first compound 158.11 µM", "value": 0.232}, {"measurement": "relative viability", "setting": "[10]; first compound 500 µM", "value": 0.155}, {"measurement": "relative viability", "setting": "[11]; first compound 5 µM", "value": 0.771}, {"measurement": "relative viability", "setting": "[11]; first compound 15.81 µM", "value": 0.777}, {"measurement": "relative viability", "setting": "[11]; first compound 50 µM", "value": 0.781}, {"measurement": "relative viability", "setting": "[11]; first compound 158.11 µM", "value": 0.317}, {"measurement": "relative viability", "setting": "[11]; first compound 500 µM", "value": 0.0621}]}]}
